Test results from PubChem BioAssay (NCI).
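Assay format: 96-well plates, 48-hour exposure. The concentration for full growth arrest is given as TGI.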

How the values were obtained:
Assay in all cases: NCI tumour cell line growth inhibition, 48 h
HT29 colon = system: HT29 colon
SF-539 CNS = system: SF-539 CNS
SF-268 CNS = system: SF-268 CNS
A498 renal = system: A498 renal
HCC-2998 colon = system: HCC-2998 colon
A549 NSCLC = system: A549 NSCLC
ACHN renal = system: ACHN renal
K-562 leukemia = system: K-562 leukemia
DU-145 prostate = system: DU-145 prostate
OVCAR-4 ovarian = system: OVCAR-4 ovarian
CCRF-CEM leukemia = system: CCRF-CEM leukemia
OVCAR-3 ovarian = system: OVCAR-3 ovarian
UACC-257 melanoma = system: UACC-257 melanoma
HOP-92 NSCLC = system: HOP-92 NSCLC
HCT-116 colon = system: HCT-116 colon
M14 melanoma = system: M14 melanoma
HS 578T breast = system: HS 578T breast
SW-620 colon = system: SW-620 colon
MDA-MB-231 breast = system: MDA-MB-231 breast
TK-10 renal = system: TK-10 renal
RXF 393 renal = system: RXF 393 renal
MDA-N = system: MDA-N
LOX IMVI melanoma = system: LOX IMVI melanoma
UO-31 renal = system: UO-31 renal
CAKI-1 renal = system: CAKI-1 renal
KM12 colon = system: KM12 colon
HL-60(TB) leukemia = system: HL-60(TB) leukemia
T-47D breast = system: T-47D breast
SN12C renal = system: SN12C renal
HCT-15 colon = system: HCT-15 colon
NCI-H23 lung = system: NCI-H23 lung
SK-MEL-5 melanoma = system: SK-MEL-5 melanoma
MOLT-4 leukemia = system: MOLT-4 leukemia
RPMI-8226 leukemia = system: RPMI-8226 leukemia
NCI-H226 lung = system: NCI-H226 lung
786-0 renal = system: 786-0 renal
MCF7 breast = system: MCF7 breast
BT-549 breast = system: BT-549 breast
OVCAR-8 ovarian = system: OVCAR-8 ovarian
NCI-H522 lung = system: NCI-H522 lung
EKVX NSCLC = system: EKVX NSCLC
SK-MEL-28 melanoma = system: SK-MEL-28 melanoma
SNB-19 CNS = system: SNB-19 CNS
SF-295 CNS = system: SF-295 CNS
SNB-75 CNS = system: SNB-75 CNS
U251 CNS = system: U251 CNS
PC-3 prostate = system: PC-3 prostate
MDA-MB-435 = system: MDA-MB-435
MALME-3M melanoma = system: MALME-3M melanoma
NCI/ADR-RES ovarian = system: NCI/ADR-RES ovarian
IGROV1 ovarian = system: IGROV1 ovarian
NCI-H460 lung = system: NCI-H460 lung
OVCAR-5 ovarian = system: OVCAR-5 ovarian
COLO 205 colon = system: COLO 205 colon
HOP-62 NSCLC = system: HOP-62 NSCLC
SR leukemia = system: SR leukemia
SK-MEL-2 melanoma = system: SK-MEL-2 melanoma
UACC-62 melanoma = system: UACC-62 melanoma
SK-OV-3 ovarian = system: SK-OV-3 ovarian

Measured: TGI

O=c1[nH]nc(Cc2ccccc2)n1/N=C/c1ccncc1
not listed: SK-MEL-2 melanoma | UACC-62 melanoma | SK-OV-3 ovarian
> 100 µM: all other assays above

CSc1n[nH]c(N)c1C(=O)Nc1ccccc1
not listed: ACHN renal | HOP-92 NSCLC | SF-295 CNS | HOP-62 NSCLC
> 100 µM: all other assays above
